Test results taken from article PMC7281072 (Cancers, 2020).

Experiments:
[1] = system: ERK1,2 phosphorylation; experiment: ERK1/2 phosphorylation ELISA, UWB1.289 cells; type: cell-based, human; settings: Homo sapiens, UWB1289, 1 h, 60 min, read-out: IC50, pERK 1/2 inhibition
[2] = system: AKT1,2 phosphorylation; experiment: AKT phosphorylation ELISA, OVCAR-3 cells; type: cell-based, human; settings: for Vmax ± SE, pAKT 1/2 inhibition: Michaelis Menten model; for IC50: Homo sapiens, read-out: IC50, pAKT 1/2 inhibition
[3] = system: SK-OV-3 cancer cell line; experiment: cells; settings: Homo sapiens, SK-OV-3, 48 h
[4] = system: ERK1,2 phosphorylation; experiment: ERK1/2 phosphorylation ELISA, OVCAR-3 cells; type: cell-based, human; settings: for Vmax ± SE, pERK 1/2 inhibition: Michaelis Menten model; for IC50: Homo sapiens, read-out: IC50, pERK 1/2 inhibition
[5] = system: AKT1,2 phosphorylation; experiment: AKT phosphorylation ELISA, UWB1.289 cells; type: cell-based, human; settings: for Vmax ± SE, pAKT 1/2 inhibition: Michaelis Menten model; for IC50: Homo sapiens, read-out: IC50, pAKT 1/2 inhibition
[6] = system: UWB1.289+BRCA1 cancer cell line; experiment: cells; settings: Homo sapiens, 48 h
[7] = system: pAKT; experiment: Western immunoblotting densitometry, pAKT, SKOV-3 cells; type: cell-based, human; settings: 25 μM; for ratio [pAKT]/[GAPDH] band intensity: SKOV-3 cells; for ratio [pAKT]/[GAPDH] band intensity, single blot (panel A): panel A lower set, cell line not given, control ratio 0.996
[8] = system: UWB1.289 cancer cell line
[9] = system: UWB1.289+BRCA1 cancer cell line
[10] = system: OVCAR-5 cancer cell line; experiment: cells; settings: Homo sapiens, OVCAR-5, 48 h
[11] = system: UWB1.289 cancer cell line; experiment: cells; settings: Homo sapiens, UWB1289, 48 h
[12] = system: OVCAR-5 cancer cell line
[13] = system: ERK1,2 phosphorylation; experiment: ERK1/2 phosphorylation ELISA, OVCAR-5 cells; type: cell-based, human; settings: for Vmax ± SE, pERK 1/2 inhibition: Michaelis Menten model; for IC50: Homo sapiens, read-out: IC50, pERK 1/2 inhibition
[14] = system: SK-OV-3 cancer cell line
[15] = system: AKT1,2 phosphorylation; experiment: AKT phosphorylation ELISA, SK-OV-3 cells; type: cell-based, human; settings: for Vmax ± SE, pAKT 1/2 inhibition: Michaelis Menten model; for IC50: Homo sapiens, read-out: IC50, pAKT 1/2 inhibition
[16] = system: ERK1,2 phosphorylation; experiment: ERK1/2 phosphorylation ELISA, SK-OV-3 cells; type: cell-based, human; settings: for Vmax ± SE, pERK 1/2 inhibition: Michaelis Menten model; for IC50: Homo sapiens, read-out: IC50, pERK 1/2 inhibition
[17] = read-out: GI50 (50% Growth Inhibition)
[18] = read-out: IC50 (cytotoxic effect)

C[C@]12CC[C@H]3[C@@H](CCC4=CC(=O)NCC[C@@]43C)[C@@H]1CC[C@@H]2OC(=O)CCOc1ccc(N(CCCl)CCCl)cc1 [ENGA-L06E, 5a,7a-dimethyl-2-oxo-2,3,4,5,5a,5b,6,7,7a,8,9,10,10a,10b,11,12-hexa decahydrocyclopenta [5, 6] naphtho [1,2-d] azepin-8-yl 3-(4-(bis(2-chloroethyl)amino)phenoxy) propanoate]
IC50 [1]: 3.53 µM
Vmax ± SE, pAKT 1/2 inhibition ([2]; 15 min): 57.71 ± 5.51
Vmax ± SE, pAKT 1/2 inhibition ([2]; 30 min): 60.76 ± 2.97
Vmax ± SE, pAKT 1/2 inhibition ([2]; 60 min): 62.20 ± 5.12
IC50 ([2]; 0.25 h, 15 min): 29.1 µM
IC50 ([2]; 0.5 h, 30 min): 24.4 µM
IC50 ([2]; 1 h, 60 min): 18.3 µM
GI50 [3, 17]: 18 ± 0.9 µM
IC50 [3, 18]: 76 ± 7.5 µM
Vmax ± SE, pERK 1/2 inhibition ([4]; 15 min): 53.57 ± 3.41
Vmax ± SE, pERK 1/2 inhibition ([4]; 30 min): 80.62 ± 1.98
Vmax ± SE, pERK 1/2 inhibition ([4]; 60 min): 93.91 ± 3.61
IC50 ([4]; 0.25 h, 15 min): 49 µM
IC50 ([4]; 0.5 h, 30 min): 14.5 µM
IC50 ([4]; 1 h, 60 min): 12.8 µM
Vmax ± SE, pAKT 1/2 inhibition ([5]; 15 min): 62.12 ± 1.41
Vmax ± SE, pAKT 1/2 inhibition ([5]; 30 min): 64.94 ± 4.22
Vmax ± SE, pAKT 1/2 inhibition ([5]; 60 min): 71.12 ± 3.34
IC50 ([5]; UWB1289, 0.25 h, 15 min): 16.9 µM
IC50 ([5]; UWB1289, 0.5 h, 30 min): 14.4 µM
IC50 ([5]; UWB1289, 1 h, 60 min): 11.8 µM
GI50 [6, 17]: 12 ± 0.7 µM
IC50 [6, 18]: 40 ± 3.5 µM
ratio [pAKT]/[GAPDH] band intensity ([7]; 15min, control ratio 0.98): 0.94
ratio [pAKT]/[GAPDH] band intensity ([7]; 30min, control ratio 0.98): 0.78
ratio [pAKT]/[GAPDH] band intensity ([7]; 1h, control ratio 1.02): 0.73
ratio [pAKT]/[GAPDH] band intensity ([7]; 3h, control ratio 0.99): 0.65
ratio [pAKT]/[GAPDH] band intensity ([7]; 12h, control ratio 0.94): 0.58
ratio [pAKT]/[GAPDH] band intensity, single blot (panel A) ([7]; 1h): 0.40
ratio [pAKT]/[GAPDH] band intensity, single blot (panel A) ([7]; 3h): 0.20
TGI (Total Growth Inhibition) [8]: 8 ± 0.8 μΜ
TGI (Total Growth Inhibition) [9]: 28 ± 1.9 μΜ
GI50 [10, 17]: 25 ± 1.4 µM
IC50 [10, 18]: 65 ± 3.4 µM
GI50 [11, 17]: 3.5 ± 0.4 µM
IC50 [11, 18]: 20 ± 1.1 µM
TGI (Total Growth Inhibition) [12]: 42 ± 2.8 μΜ
Vmax ± SE, pERK 1/2 inhibition ([13]; 15 min): 68.95 ± 3.21
Vmax ± SE, pERK 1/2 inhibition ([13]; 30 min): 74.99 ± 2.47
Vmax ± SE, pERK 1/2 inhibition ([13]; 60 min): 80.67 ± 1.52
IC50 ([13]; 0.25 h, 15 min): 20 µM
IC50 ([13]; 0.5 h, 30 min): 14.1 µM
IC50 ([13]; 1 h, 60 min): 9.18 µM
TGI (Total Growth Inhibition) [14]: 52 ± 3.3 μΜ
Vmax ± SE, pAKT 1/2 inhibition ([15]; 15 min): 79.23 ± 0.39
Vmax ± SE, pAKT 1/2 inhibition ([15]; 30 min): 86.10 ± 1.13
Vmax ± SE, pAKT 1/2 inhibition ([15]; 60 min): 87.27 ± 0.59
IC50 ([15]; 0.25 h, 15 min): 25.9 µM
IC50 ([15]; 0.5 h, 30 min): 22.3 µM
IC50 ([15]; 1 h, 60 min): 21.4 µM
Vmax ± SE, pERK 1/2 inhibition ([16]; 15 min): 79.14 ± 2.62
Vmax ± SE, pERK 1/2 inhibition ([16]; 30 min): 82.95 ± 1.69
Vmax ± SE, pERK 1/2 inhibition ([16]; 60 min): 84.71 ± 1.60
IC50 ([16]; 0.25 h, 15 min): 13 µM
IC50 ([16]; 0.5 h, 30 min): 11 µM
IC50 ([16]; 1 h, 60 min): 8.78 µM
